In ChEMBL document CHEMBL2034824, “Pyridyl-2,5-diketopiperazines as potent, selective, and orally bioavailable oxytocin antagonists: synthesis, pharmacokinetics, and in vivo potency” (J Med Chem, 2012):

Columns and labels:
Oxytocin receptor [1] = molecular target: T1, Oxytocin receptor (Homo sapiens, UniProt P30559); assay: Antagonist activity at human oxytocin receptor assessed as inhibition of oxytocin binding by FLIPR analysis
T1 sequence (P30559 whole entry): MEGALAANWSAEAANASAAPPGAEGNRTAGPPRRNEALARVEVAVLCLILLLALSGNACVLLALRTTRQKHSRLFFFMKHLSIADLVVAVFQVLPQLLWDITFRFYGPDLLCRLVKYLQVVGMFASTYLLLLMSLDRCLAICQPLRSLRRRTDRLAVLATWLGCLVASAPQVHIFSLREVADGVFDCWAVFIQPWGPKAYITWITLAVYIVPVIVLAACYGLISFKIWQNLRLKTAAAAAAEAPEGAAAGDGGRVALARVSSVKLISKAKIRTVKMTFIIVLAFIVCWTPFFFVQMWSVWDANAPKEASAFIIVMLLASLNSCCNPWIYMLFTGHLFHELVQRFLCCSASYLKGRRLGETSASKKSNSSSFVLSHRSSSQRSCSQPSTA

Oxytocin receptor [2] = molecular target: T1, Oxytocin receptor; assay: Displacement of [3H]oxytocin from human oxytocin receptor
[3] = AUC in rat at 5 mg/kg, po; assay type: ADME, organism-based; set-up: dose 5 mg/kg, route oral; conditions: plasma
[4] = Clearance in rat at 5 mg/kg; assay type: ADME, organism-based; set-up: dose 5 mg/kg; conditions: in vivo
[5] = Oral bioavailability in rat at 5 mg/kg; assay type: ADME, organism-based; conditions: in vivo
[6] = AUC in dog at 0.6 mg/kg, po; assay type: ADME, organism-based, Canis lupus familiaris; set-up: dose 0.6 mg/kg, route oral; conditions: plasma
[7] = Clearance in dog at 0.6 mg/kg; assay type: ADME, organism-based, Canis lupus familiaris; set-up: dose 0.6 mg/kg; conditions: in vivo
[8] = Oral bioavailability in dog at 0.6 mg/kg; assay type: ADME, organism-based, Canis lupus familiaris; conditions: in vivo
Liver microsomes [9] = assay: Intrinsic clearance in rat liver microsomes; assay type: ADME, Microsome
Liver = assay: Intrinsic clearance in dog liver microsomes; assay type: ADME, Canis lupus familiaris, Microsome
[10] = Intrinsic clearance in cynomolgus monkey liver microsomes; assay type: ADME, Macaca fascicularis, Microsome
Liver microsomes [11] = assay: Intrinsic clearance in human liver microsomes; assay type: ADME, Microsome
[12] = AUC in cynomolgus monkey at 2 mg/kg, po; assay type: ADME, organism-based, Macaca fascicularis; set-up: dose 2 mg/kg, route oral; conditions: plasma
[13] = Clearance in cynomolgus monkey at 2 mg/kg; assay type: ADME, organism-based, Macaca fascicularis; set-up: dose 2 mg/kg; conditions: in vivo
[14] = Oral bioavailability in cynomolgus monkey at 2 mg/kg; assay type: ADME, organism-based, Macaca fascicularis; conditions: in vivo
[15] = Lipophilicity, log D of the compound by HPLC analysis; assay type: physicochemical
serum albumin [16] = molecular target: serum albumin (Homo sapiens, UniProt P02768); assay: Binding affinity to human serum albumin; assay type: ADME; conditions: read-out: PB (converted)
serum albumin [17] = molecular target: serum albumin (Rattus norvegicus, UniProt P02770); assay: Binding affinity to rat serum albumin; assay type: ADME; conditions: read-out: PB (converted)
Vasopressin V1a receptor = Vasopressin V1a receptor (Homo sapiens, UniProt P37288); assay: Displacement of [3H]vasopressin from human vasopressin V1a receptor
Vasopressin V1b receptor = molecular target: T2, Vasopressin V1b receptor (Homo sapiens, UniProt P47901); assay: Displacement of [3H]vasopressin from human vasopressin V1b receptor
T2 sequence (P47901 whole entry): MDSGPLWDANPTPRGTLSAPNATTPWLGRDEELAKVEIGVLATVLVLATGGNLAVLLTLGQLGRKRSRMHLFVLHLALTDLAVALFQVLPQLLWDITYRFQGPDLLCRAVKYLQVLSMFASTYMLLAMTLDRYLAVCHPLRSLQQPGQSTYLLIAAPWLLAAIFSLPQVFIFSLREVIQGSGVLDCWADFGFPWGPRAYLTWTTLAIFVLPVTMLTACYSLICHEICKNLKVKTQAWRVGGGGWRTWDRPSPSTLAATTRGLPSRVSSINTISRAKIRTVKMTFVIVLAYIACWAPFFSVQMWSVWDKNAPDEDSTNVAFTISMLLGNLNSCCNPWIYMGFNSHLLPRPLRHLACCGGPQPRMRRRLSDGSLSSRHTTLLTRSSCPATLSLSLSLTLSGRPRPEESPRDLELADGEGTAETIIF

Vasopressin V2 receptor = Vasopressin V2 receptor (Homo sapiens, UniProt P30518); assay: Displacement of [3H]vasopressin from human vasopressin V2 receptor
Cytochrome P450 1A2 = molecular target: T3, Cytochrome P450 1A2 (Homo sapiens, UniProt P05177); assay: Inhibition of human CYP1A2; assay type: ADME
T3 sequence (P05177 whole entry): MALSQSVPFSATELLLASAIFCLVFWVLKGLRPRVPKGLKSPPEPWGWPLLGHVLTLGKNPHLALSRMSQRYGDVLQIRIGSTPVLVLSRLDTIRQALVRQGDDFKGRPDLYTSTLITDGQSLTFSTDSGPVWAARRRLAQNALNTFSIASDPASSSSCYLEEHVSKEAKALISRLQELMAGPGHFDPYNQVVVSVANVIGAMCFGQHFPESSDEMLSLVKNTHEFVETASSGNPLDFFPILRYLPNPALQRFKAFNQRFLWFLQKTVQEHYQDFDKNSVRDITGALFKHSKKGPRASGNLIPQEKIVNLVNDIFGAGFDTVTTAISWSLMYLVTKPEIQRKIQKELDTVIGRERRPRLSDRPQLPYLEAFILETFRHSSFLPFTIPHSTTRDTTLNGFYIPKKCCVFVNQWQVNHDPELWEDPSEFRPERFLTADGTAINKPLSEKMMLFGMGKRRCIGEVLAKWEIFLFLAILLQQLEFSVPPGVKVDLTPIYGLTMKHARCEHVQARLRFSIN

Cytochrome P450 2C9 = Cytochrome P450 2C9 (Homo sapiens, UniProt P11712); assay: Inhibition of human CYP2C9; assay type: ADME
Cytochrome P450 2C19 = Cytochrome P450 2C19 (Homo sapiens, UniProt P33261); assay: Inhibition of human CYP2C19; assay type: ADME
Cytochrome P450 2D6 = Cytochrome P450 2D6 (Homo sapiens, UniProt P10635); assay: Inhibition of human CYP2D6; assay type: ADME
Cytochrome P450 3A4 [18] = molecular target: T4, Cytochrome P450 3A4 (Homo sapiens, UniProt P08684); assay: Inhibition of human CYP3A4 using diethoxyfluorescein as substrate; assay type: ADME
Cytochrome P450 3A4 [19] = molecular target: T4, Cytochrome P450 3A4; assay: Inhibition of human CYP3A4 using 7-benzyloxyquinoline as substrate; assay type: ADME

T4 sequence (P08684 whole entry): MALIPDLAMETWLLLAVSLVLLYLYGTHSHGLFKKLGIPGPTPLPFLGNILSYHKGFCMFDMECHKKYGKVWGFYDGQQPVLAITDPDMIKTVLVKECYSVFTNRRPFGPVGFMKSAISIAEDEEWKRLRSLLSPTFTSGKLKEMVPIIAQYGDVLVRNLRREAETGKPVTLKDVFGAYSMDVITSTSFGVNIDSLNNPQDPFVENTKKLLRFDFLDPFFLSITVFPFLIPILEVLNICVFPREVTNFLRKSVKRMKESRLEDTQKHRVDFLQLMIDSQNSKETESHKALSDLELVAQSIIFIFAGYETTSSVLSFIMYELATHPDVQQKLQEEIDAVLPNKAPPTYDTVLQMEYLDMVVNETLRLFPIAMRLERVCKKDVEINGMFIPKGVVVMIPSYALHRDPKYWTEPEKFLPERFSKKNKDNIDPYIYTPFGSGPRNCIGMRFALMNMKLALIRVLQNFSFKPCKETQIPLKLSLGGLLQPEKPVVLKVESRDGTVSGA
Chain of Cytochrome P450 2D6 (P10635 whole entry): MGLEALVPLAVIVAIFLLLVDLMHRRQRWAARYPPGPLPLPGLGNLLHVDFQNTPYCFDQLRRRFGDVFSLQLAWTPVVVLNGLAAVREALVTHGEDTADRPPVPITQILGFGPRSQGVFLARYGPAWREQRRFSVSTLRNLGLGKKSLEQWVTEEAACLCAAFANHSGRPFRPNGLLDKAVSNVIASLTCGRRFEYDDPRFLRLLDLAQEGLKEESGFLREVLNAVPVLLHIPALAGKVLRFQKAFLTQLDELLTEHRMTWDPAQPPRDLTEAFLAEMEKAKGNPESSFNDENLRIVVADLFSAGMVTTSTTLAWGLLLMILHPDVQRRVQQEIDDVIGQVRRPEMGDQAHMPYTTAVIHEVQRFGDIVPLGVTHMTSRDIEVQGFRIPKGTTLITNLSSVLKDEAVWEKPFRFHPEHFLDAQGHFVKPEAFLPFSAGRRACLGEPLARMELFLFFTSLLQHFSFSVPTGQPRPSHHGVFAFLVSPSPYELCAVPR
Chain of Cytochrome P450 2C9 (P11712 whole entry): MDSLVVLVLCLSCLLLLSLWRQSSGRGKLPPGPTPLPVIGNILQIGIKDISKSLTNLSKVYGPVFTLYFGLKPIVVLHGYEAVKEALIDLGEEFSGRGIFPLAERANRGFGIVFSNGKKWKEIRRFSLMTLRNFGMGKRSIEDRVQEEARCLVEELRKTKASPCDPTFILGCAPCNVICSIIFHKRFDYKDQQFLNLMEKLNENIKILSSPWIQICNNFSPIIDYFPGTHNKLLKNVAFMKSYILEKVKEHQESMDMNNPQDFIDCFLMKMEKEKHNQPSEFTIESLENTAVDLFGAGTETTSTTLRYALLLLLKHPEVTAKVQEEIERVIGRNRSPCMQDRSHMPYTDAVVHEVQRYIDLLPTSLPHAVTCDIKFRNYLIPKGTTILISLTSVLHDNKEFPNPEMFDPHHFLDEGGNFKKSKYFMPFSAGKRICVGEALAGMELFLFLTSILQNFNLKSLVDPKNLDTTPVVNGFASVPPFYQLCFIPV
Chain of Cytochrome P450 2C19 (P33261 whole entry): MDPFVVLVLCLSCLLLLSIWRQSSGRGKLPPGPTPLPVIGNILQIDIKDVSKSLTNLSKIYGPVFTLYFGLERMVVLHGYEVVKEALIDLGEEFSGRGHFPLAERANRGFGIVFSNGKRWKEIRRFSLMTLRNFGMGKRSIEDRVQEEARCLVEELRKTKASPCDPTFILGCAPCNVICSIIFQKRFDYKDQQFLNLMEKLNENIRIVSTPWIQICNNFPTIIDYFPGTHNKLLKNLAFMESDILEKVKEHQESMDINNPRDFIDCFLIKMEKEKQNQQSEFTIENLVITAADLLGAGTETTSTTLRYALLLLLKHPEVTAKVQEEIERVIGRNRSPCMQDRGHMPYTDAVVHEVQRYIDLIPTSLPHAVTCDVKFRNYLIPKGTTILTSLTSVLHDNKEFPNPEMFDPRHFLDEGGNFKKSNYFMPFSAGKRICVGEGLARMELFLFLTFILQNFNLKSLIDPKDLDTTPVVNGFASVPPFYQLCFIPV
Chain of serum albumin (Rattus norvegicus, UniProt P02770) (P02770 whole entry): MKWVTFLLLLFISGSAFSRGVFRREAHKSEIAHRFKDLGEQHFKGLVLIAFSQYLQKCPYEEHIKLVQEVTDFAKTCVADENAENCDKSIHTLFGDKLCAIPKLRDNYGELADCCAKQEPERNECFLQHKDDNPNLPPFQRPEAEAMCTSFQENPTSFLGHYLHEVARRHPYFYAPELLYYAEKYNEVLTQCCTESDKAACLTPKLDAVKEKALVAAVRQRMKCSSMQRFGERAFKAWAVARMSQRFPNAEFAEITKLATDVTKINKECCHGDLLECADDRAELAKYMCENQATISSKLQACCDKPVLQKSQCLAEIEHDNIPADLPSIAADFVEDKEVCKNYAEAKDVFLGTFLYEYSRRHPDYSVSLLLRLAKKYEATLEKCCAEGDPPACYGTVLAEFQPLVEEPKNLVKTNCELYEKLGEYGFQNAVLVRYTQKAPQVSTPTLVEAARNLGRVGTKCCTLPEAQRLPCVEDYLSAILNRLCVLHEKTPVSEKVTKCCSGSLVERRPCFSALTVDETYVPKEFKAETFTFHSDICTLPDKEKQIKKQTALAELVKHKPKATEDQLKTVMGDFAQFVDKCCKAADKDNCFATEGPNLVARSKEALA
Chain of Vasopressin V1a receptor (P37288 whole entry): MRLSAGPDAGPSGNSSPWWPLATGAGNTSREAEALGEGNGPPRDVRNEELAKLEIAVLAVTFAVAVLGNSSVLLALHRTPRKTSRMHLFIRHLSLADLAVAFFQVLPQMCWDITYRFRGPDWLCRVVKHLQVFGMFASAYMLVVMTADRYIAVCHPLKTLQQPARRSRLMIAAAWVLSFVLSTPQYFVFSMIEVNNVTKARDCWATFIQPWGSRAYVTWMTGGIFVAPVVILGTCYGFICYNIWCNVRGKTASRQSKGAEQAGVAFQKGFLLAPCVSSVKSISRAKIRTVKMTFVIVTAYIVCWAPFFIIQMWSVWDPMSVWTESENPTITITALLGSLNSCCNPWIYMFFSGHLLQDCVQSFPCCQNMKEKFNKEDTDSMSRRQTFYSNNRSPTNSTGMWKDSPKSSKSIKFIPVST
Chain of serum albumin (Homo sapiens, UniProt P02768) (P02768 whole entry): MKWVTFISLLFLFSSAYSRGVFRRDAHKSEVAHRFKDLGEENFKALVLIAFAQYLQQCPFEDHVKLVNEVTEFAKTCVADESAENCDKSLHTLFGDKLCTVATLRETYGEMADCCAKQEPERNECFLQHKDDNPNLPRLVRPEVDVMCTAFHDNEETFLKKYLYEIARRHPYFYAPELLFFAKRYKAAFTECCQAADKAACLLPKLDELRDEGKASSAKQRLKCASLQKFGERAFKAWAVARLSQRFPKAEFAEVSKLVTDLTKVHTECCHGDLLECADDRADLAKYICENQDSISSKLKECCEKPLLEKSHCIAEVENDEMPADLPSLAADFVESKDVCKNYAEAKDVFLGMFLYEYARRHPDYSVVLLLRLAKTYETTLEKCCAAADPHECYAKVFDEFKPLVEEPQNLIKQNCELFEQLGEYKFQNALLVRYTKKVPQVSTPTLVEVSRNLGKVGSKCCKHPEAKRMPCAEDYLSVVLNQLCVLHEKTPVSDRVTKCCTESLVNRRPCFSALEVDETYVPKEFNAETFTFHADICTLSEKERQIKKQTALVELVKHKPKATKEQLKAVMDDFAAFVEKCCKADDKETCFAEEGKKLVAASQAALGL
Chain of Vasopressin V2 receptor (P30518 whole entry): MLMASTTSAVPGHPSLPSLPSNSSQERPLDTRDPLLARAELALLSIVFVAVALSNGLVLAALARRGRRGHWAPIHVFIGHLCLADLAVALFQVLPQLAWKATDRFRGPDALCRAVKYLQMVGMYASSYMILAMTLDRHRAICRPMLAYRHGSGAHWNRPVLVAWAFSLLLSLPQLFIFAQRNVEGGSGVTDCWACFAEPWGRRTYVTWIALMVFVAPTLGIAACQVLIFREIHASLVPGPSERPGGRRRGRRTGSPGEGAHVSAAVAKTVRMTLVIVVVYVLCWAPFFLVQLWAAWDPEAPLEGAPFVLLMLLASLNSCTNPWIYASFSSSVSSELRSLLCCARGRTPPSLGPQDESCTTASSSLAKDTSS

SMILES	Ki (Oxytocin receptor [1]) [nM]	Ki (Oxytocin receptor [2]) [nM]	AUC [3] [ng·h/mL]	clearance [4] [mL/min/kg]	AUC [6] [ng·h/mL]	clearance [7] [mL/min/kg]	CLH (Liver microsomes [9]) [mL/min/g]	CLH (Liver) [mL/min/g]	CLH [10] [mL/min/g]	CLH (Liver microsomes [11]) [mL/min/g]	AUC [12] [ng·h/mL]	clearance [13] [mL/min/kg]	bioavailability [14] [%]	also measured
CCc1ccccc1[C@H](C(=O)NC(C)C)N1C(=O)[C@@H](C2Cc3ccccc3C2)NC(=O)[C@H]1CC(C)C	15.8													
COC(=O)c1ccccc1[C@@H](C(=O)NC(C)C)N1C(=O)[C@@H](C2Cc3ccccc3C2)NC(=O)[C@H]1CC(C)C	158													
CCC(CC)[C@@H]1C(=O)N[C@H](C2Cc3ccccc3C2)C(=O)N1[C@@H](C(=O)NC)c1ccc(C)nc1		0.1	1470	17	173	22	1	2	8	4	29	24	4	bioavailability [5]: 28%; bioavailability [8]: 38%
COc1ccccc1[C@H](C(=O)NC(C)C)N1C(=O)[C@@H](C2Cc3ccccc3C2)NC(=O)[C@H]1CC(C)C	31.6													
CC(C)C[C@@H]1C(=O)N[C@H](C2Cc3ccccc3C2)C(=O)N1[C@@H](C(=O)NC(C)C)c1ccccc1-c1ccccc1	39.8													
CC[C@H](C)[C@@H]1C(=O)N[C@H](C2Cc3ccccc3C2)C(=O)N1[C@@H](C(=O)N(C)C)c1ccc(C)nc1C		0.0794	4720	15	305	14	1	1	14	7	17	20	1	bioavailability [5]: 84%; bioavailability [8]: 44%
CC[C@H](C)[C@@H]1C(=O)N[C@H](C2Cc3ccccc3C2)C(=O)N1[C@@H](C(=O)N1CCOCC1)c1coc(C)n1 [RETOSIBAN]									6	3	45	26	10	
CC(C)C[C@@H]1C(=O)N[C@H](C2Cc3ccccc3C2)C(=O)N1[C@@H](C(=O)N(C)C)c1ccc(F)cc1F		0.0794	2970	15	770	7	2	7	22	14	16	24	1.5	logD [15]: 3.4; fraction unbound (serum albumin [16]): 0.06; fraction unbound (serum albumin [17]): 0.01; Ki (Vasopressin V1a receptor): 631 nM; Ki (Vasopressin V1b receptor): > 12600 nM; Ki (Vasopressin V2 receptor): 39.8 nM; IC50 (Cytochrome P450 1A2): > 100000 nM; IC50 (Cytochrome P450 2C9): 12000 nM; IC50 (Cytochrome P450 2C19): 38000 nM; IC50 (Cytochrome P450 2D6): 66000 nM; IC50 (Cytochrome P450 3A4 [18]): 5000 nM; IC50 (Cytochrome P450 3A4 [19]): 31000 nM
